According to patent publication US5849690A, “Anti-aggregatory peptides” (SmithKline Beecham Corporation, priority 1992, dated 1998):
“Also recorded” adds a separate entry of the source. Residues, ends and D or L forms follow the SMILES beside them.

Assays:
preformed human clot = experiment: Human clot lysis assay (tPA induced fibrinolysis); format: biochemical
Protocol: The human clot lysis assay is used to assess the in vitro effect of anti-fibrotic peptide on tPA induced fibrinolysis. Outdated, citrated, human plasma from the American Red Cross is spun for 20 min. at 1300X g to remove remaining blood cells. A solution consisting of plasma, ^125 I-fibrinogen, calcium chloride and thrombin is added to 6 mm tissue culture plates and incubated 15 to 18 hrs. at 37° C. The next morning, each well is rinsed to release the clot. Clots are washed twice with Tris-buffered saline, containing heparin and albumin. Each clot is then added to 1.0 ml of the same plasma used to prepare the clot. tPA is added to tubes over a concentration range of 7 to 250 ng/ml (final concentration). Tubes are incubated at 37° C. with gentle rotation for 4 hrs. At the end of 4 hrs., a 25 μl aliquot is removed and counted to measure ^125 I released from the clot. All samples are run in triplicate.

[1] = target: T1, Platelet rich plasma, PRP (Canis lupus familiaris, UniProt A0A8I3N5G5+A0A8I3PMU9); experiment: Inhibition of platelet aggregation, PRP/ADP; format: cell-based; conditions: dog platelet rich plasma, 2 μM ADP, peptide added 3 min. prior to agonist; read-out: Antiaggregatory Activity IC50, μM PRP/ADP
T1 sequence (A0A8I3N5G5 1-1047): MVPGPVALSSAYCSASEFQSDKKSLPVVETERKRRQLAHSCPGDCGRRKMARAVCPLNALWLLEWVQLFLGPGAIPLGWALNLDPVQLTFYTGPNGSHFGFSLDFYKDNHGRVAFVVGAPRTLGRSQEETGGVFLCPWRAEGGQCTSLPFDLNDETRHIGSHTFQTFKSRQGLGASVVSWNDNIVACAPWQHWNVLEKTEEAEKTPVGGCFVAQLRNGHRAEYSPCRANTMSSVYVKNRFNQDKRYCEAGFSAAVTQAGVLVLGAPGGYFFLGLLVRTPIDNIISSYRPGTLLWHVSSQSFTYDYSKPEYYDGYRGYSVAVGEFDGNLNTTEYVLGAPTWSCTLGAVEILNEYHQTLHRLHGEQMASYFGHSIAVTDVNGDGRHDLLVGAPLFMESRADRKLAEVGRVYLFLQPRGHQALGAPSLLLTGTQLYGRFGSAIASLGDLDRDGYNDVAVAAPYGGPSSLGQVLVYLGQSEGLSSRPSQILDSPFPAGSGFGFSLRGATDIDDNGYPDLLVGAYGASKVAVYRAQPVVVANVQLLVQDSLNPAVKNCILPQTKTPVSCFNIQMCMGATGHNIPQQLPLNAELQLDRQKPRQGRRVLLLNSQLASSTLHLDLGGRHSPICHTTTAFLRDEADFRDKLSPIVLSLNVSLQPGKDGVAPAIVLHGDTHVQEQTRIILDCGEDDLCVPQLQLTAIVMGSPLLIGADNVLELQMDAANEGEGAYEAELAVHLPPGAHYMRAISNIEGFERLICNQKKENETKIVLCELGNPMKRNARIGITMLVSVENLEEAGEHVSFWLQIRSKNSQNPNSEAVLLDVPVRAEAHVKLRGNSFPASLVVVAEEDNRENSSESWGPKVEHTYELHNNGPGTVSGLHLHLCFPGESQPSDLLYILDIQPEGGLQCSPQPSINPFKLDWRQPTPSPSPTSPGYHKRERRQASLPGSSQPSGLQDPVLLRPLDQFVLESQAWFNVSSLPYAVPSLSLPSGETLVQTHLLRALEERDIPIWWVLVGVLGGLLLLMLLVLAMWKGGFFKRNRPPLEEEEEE
T1 sequence (A0A8I3PMU9 1-919): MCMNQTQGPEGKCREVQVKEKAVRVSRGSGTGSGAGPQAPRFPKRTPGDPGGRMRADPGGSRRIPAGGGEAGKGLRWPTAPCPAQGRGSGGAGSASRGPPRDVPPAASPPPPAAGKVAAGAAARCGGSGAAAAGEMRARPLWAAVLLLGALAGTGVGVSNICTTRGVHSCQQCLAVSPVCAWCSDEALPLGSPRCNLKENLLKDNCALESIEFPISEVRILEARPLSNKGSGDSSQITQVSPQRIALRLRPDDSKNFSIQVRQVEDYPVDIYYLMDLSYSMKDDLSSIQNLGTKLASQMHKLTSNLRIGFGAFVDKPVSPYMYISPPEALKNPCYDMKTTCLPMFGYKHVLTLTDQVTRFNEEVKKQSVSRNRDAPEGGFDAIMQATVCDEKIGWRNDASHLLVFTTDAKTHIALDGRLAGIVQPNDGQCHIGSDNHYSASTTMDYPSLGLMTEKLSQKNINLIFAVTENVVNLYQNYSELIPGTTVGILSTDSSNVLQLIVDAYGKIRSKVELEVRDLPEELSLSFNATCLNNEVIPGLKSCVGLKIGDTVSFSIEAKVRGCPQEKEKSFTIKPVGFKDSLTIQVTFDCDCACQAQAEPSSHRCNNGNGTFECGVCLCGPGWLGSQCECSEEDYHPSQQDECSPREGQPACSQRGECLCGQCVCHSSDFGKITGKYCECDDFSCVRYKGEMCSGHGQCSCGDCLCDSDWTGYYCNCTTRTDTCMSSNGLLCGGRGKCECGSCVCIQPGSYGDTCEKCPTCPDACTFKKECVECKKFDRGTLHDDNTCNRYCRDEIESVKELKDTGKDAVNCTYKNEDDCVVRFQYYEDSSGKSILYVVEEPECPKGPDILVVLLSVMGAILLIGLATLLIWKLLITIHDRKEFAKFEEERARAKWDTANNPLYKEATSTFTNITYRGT
Protocol: (§1) Blood was collected (citrated to prevent coagulation) from, naive, adult mongrel dogs. Platelet rich plasma, PRP, was prepared by centrifugation at 150×g for 10 min. at room temperature. Washed platelets were prepared by centrifuging PRP at 800×g for 10 min. The cell pellet thus obtained was washed twice in Tyrode's buffer (pH 6.5) without Ca^2+ and resuspended in Tyrode's buffer (pH 7.4) containing 1.8 mM Ca^2+ at […]. Peptides were added 3 min. prior to the agonist in all assays of platelet aggregation. Final agonist concentrations were 0.1 unit/ml thrombin and 2 μM ADP (Sigma). Aggregation was monitored in a Chrono-Log Lumi-Aggregometer. Light transmittance 5 min. after addition of the agonist was used to calculate percent aggregation according to the formula % aggregation=[(90-CR).div.(90-10)]×100, where CR is the chart reading, 90 is the baseline, and 10 is the PRP blank reading. IC50 's were determined by plotting [% inhibition of aggregation] vs. [concentration of peptide]. Peptides were assayed at 200 μM and diluted sequentially by a factor of 2 to establish a suitable dose response curve.

Washed platelets = target: T2, Washed platelets (Canis lupus familiaris, UniProt A0A8I3N5G5+A0A8I3PMU9); experiment: Inhibition of platelet aggregation, WP/Thrombin; format: cell-based; conditions: dog washed platelets, 0.1 unit/ml thrombin, peptide added 3 min. prior to agonist; read-out: Antiaggregatory Activity IC50, μM WP/Thrombin
T2 sequence (A0A8I3N5G5 1-1047): T1 sequence (A0A8I3N5G5 1-1047)
T2 sequence (A0A8I3PMU9 1-919): T1 sequence (A0A8I3PMU9 1-919)
Protocol: as §1

[2] = Stability of the peptide to plasma proteases (3 hrs. incubation in PRP before agonist); format: in vitro ADME, dog; conditions: peptide incubated 3 hrs. in PRP prior to addition of agonist
Protocol: as §1
To assess the stability of the peptide to plasma proteases, the peptides were incubated for 3 hrs. (rather than 3 min.) in the PRP prior to addition of the agonist.

[3] = test system: platelet aggregation/thrombus formation; experiment: In vivo inhibition of thrombus formation, coronary thrombosis model in anesthetized dogs; design: species or system dog
Protocol: Briefly, a small Lexan® cylinder is placed around a mechanically damaged left circumflex coronary artery to produce a fixed partial obstruction of 80-90%. Under these conditions, platelets adhere to the exposed subendothelial collagen and aggregate at the obstructed site. Aggregation is assessed as a gradual reduction in blood flow over 2-3 min. until the thrombus is mechanically dislodged from the lumen of the obstructed vessel and coronary blood flow is restored. This process is allowed to repeat itself every 2-3 min. through the control period of the experiment.

tPA(MT2N3): tissue plasminogen activator (tPA), fibrinolytic agent used to induce clot lysis
EC50 of tPA-induced clot lysis, control period (preformed human clot; % clot lysis at 4 hours, tPA alone): 31.5 ± 9.9 µg/mL

CC(=O)N(C)[C@@H](CCCNC(=N)N)C(=O)NCC(=O)N[C@@H](CC(=O)O)C(=O)N[C@@H](CO)C(N)=O [Example 26, N^α -Ac-N a-MeArg-Gly-Asp-Ser-NH2] (HELM PEPTIDE1{[ac].[meR].G.D.S.[am]}$$$$V2.0)
IC50 [1]: 7.4 µM | IC50 (Washed platelets): 28.2 µM | % Activity after 3 hr. in PRP [2]: 100%

CC(=O)N[C@@H](CCCNC(=N)N)C(=O)NCC(=O)N[C@@H](CC(=O)O)C(=O)N[C@@H](Cc1ccc2ccccc2c1)C(N)=O [Example 32, N^α -Ac-Arg-Gly-Asp-Nal-NH2] (HELM PEPTIDE1{[ac].R.G.D.[O=C([C@H](Cc1ccc2ccccc2c1)N[*:1])[*:2]].[am]}$$$$V2.0)
IC50 [1]: 40.5 µM | % Activity after 3 hr. in PRP [2]: 100%

CC(=O)N[C@H]1CSSC[C@@H](C(N)=O)NC(=O)[C@H](CO)NC(=O)[C@H](CC(=O)O)NC(=O)CNC(=O)[C@H](CCCNC(=N)N)N(C)C1=O [Example 1, N^α -Ac-Cyclo(S,S) Cys-MeArg-Gly-Asp-Ser-Cys-NH2] (HELM PEPTIDE1{[ac].C.[meR].G.D.S.C.[am]}$PEPTIDE1,PEPTIDE1,2:R3-7:R3$$$V2.0)
IC50 [1]: 1.1 µM | % Activity after 3 hr. in PRP [2]: 100%

CC(=O)N(C)[C@@H](CCCNC(=N)N)C(=O)NCC(=O)N[C@@H](CC(=O)O)C(=O)N[C@@H](Cc1ccccc1)C(N)=O [Example 35, N^α -Ac-MeArg-Gly-Asp-Phe-NH2] (HELM PEPTIDE1{[ac].[meR].G.D.F.[am]}$$$$V2.0)
IC50 [1]: 10.8 µM | % Activity after 3 hr. in PRP [2]: 100%

CC(=O)N[C@H]1CSSC2(CCCCC2)C(C(N)=O)NC(=O)[C@H](CC(=O)O)NC(=O)CNC(=O)[C@H](CCCNC(=N)N)NC1=O (stereo partly drawn) [Example 2, N^α -Ac-Cyclo(S,S) Cys-Arg-Gly-Asp-(D,L) APmp-NH2] (HELM PEPTIDE1{[ac].C.R.G.D.[O=C(C(N[*:1])C1(S[*:3])CCCCC1)[*:2]].[am]}$PEPTIDE1,PEPTIDE1,2:R3-6:R3$$$V2.0)
IC50 [1]: 1.53 µM | % Activity after 3 hr. in PRP [2]: 100%

CC(=O)N[C@@H](CCCN=C(N)N)C(=O)NCC(=O)N[C@@H](CC(=O)O)C(=O)N[C@@H](CO)C(N)=O [Example 27, N^α -Ac-Arg-Gly-Asp-Ser-NH2] (Ac-RGDS-NH2)
% Activity after 3 hr. in PRP [2]: 0% | effect of infusion upon coronary arterial blood pressure ([3]; 400 mM at 0.1 ml/min): no effect

N^α -Ac-Arg-Gly-Asp-Tyr-NH2 [Example 28]
IC50 [1]: 102 µM | IC50 (Washed platelets): 137 µM | % Activity after 3 hr. in PRP [2]: 98%

CC(=O)N[C@H]1CSSC[C@@H](C(N)=O)NC(=O)[C@H](CO)NC(=O)[C@H](CC(=O)O)NC(=O)CNC(=O)[C@H](CCCN=C(N)N)NC1=O [Example 3, N^α -Ac-Cyclo(S,S) Cys-Arg-Gly-Asp-Ser-Cys-NH2] (HELM PEPTIDE1{[ac].C.R.G.D.S.C.[am]}$PEPTIDE1,PEPTIDE1,2:R3-7:R3$$$V2.0)
IC50 (Washed platelets): 54.3 µM

CC(=O)N[C@@H](CCCN=C(N)N)C(=O)NCC(=O)N[C@@H](CC(=O)O)C(N)=O [Example 29, N^α -Ac-Arg-Gly-Asp-NH2]
IC50 [1]: 138 µM | IC50 (Washed platelets): 356 µM

CC(=O)N[C@@H](CCCNC(=N)N)C(=O)NCC(=O)N[C@@H](CC(=O)O)C(=O)N[C@@H](CO)C(N)=O [Example 27, N^α -Ac-Arg-Gly-Asp-Ser-NH2] (Ac-RGDS-NH2)
effect upon tPA promoted human clot lysis in vitro (preformed human clot; 1 mM peptide, listed as Ac-RGDS-NH2): no interaction; also recorded: no effect | inhibition of thrombus formation (mean coronary blood flow) ([3]; 400 mM at 0.013 ml/min.): partial inhibition with prolongation of time to complete blockage | inhibition of thrombus formation (mean coronary blood flow) ([3]; 400 mM at 0.026 ml/min. infusion, listed as Ac-RGDS-NH2): moderate inhibition with spontaneous sloughing off of the thrombus; also recorded: moderate inhibition with spontaneous sloughing off of thrombi | inhibition of thrombus formation (mean coronary blood flow) ([3]; 400 mM at 0.052 ml/min. infusion rate): complete inhibition of thrombus formation | inhibition of thrombus formation (coronary blood flow) ([3]; coronary infusion 400 mM at 0.1 ml/min, listed as Ac-RGDS-NH2): complete inhibition of thrombus formation
